Data reported in publication PMC9715504, “The blood-to-plasma ratio and predicted GABAA-binding affinity of designer benzodiazepines” (Forensic Toxicology, 2022).
Where two headings read alike, the source gives them in different places.

Experiments:
[1] = Determination of the blood-to-plasma ratio (spiked whole blood and plasma, GC–MS of plasma); assay type: in vitro ADME; conditions: pooled human blood, haematocrit 41%, 1 h at 37 °C; for blood plasma ratio at 1 h, 5 µM: both sexes, pooled whole blood and plasma, read-out: Kb/p experimental (blood-to-plasma ratio); for Kb/p experimental (blood-to-plasma ratio): 5 µM
Procedure: Human blood (pooled, from three male donors and three female donors) was obtained from Seralab (West Sussex, UK). Blood was received chilled with sodium citrate as an anticoagulant and kept at 4 °C until use. The blood was used prior to its expiration date. Blood haematocrit was 41%, as provided by the supplier.
In this method, only analysis of the plasma is required. Briefly, the compound is spiked into equal volumes of whole blood and plasma. Following equilibration, the whole blood is centrifuged to extract the plasma. The extracted plasma and the original plasma are analysed to obtain compound concentrations. The blood-to-plasma ratio can then be calculated from Eq. 1 (shown below).
In this work, aliquots of whole blood (5 mL) were centrifuged at 2500 rpm for 20 min to provide plasma. This was performed on the day of the experiments. The plasma was removed and stored at 4 °C until use (typically within 2 h).
The compounds were dissolved in DMSO or acetonitrile to produce 5 mM stock solutions. Stock solutions were diluted with PBS (pH 7.4) to produce working solutions (50 µM) on the day of experimentation. Stock solutions were stored for no longer than 1 week. Appropriate volumes of working solutions were added to blood or plasma to yield a final compound concentration of 5 µM (final solvent concentrations were 0.1%). The treated blood or plasma samples were incubated for 1 h at 37 °C. Following incubation, the blood sample was removed and centrifuged at 2500 rpm for 20 min and the plasma was extracted. The 250 µL of extracted plasma (from spiked whole blood) and 250 µL of spiked plasma had ice-cold acetonitrile added to precipitate proteins (4:1 ratio of acetonitrile-to-plasma). Both plasma samples were then centrifuged at 10,000 rpm for 20 min. The supernatants were collected and evaporated under a stream of nitrogen using a Biotage Turbovap LV Evaporator. The evaporated samples were reconstituted in 150 µL acetonitrile and analysed using gas chromatography–mass spectrometry (GC–MS).
The […] was calculated using Eq. 11 Ke/p=1/H×CPRef/CP-1+1, where Ke/p is the red blood cell partition coefficient, H is the haematocrit, CPRef is the concentration (µM) in the reference plasma, and CP is the concentration (µM) in the plasma separated from the whole blood.
Ke/p describes the ratio of the concentration of drug in the red blood cells (not including plasma) to the concentration of drug in plasma. Ke/p can be converted to the blood-to-plasma ratio (Kb/p) with Eq. 22 Kb/p=(Ke/p×H)+1-H, where Kb/p is the blood-to-plasma ratio, Ke/p is the […], and H is the haematocrit. Kb/p therefore describes the ratio of the concentration of drug in whole blood (containing both red blood cells and plasma) to the concentration of the drug in plasma.

[2] = cited from earlier work; for Kb/p literature (blood-to-plasma ratio): literature range
[3] = ref 13; cited from earlier work
[4] = biological target: GABAA receptor; design: method as in PMID 29685303; conditions: QSAR, previous work; cited from earlier work
[5] = design: method as in PMID 31933443; conditions: user reports; cited from earlier work

O=C1CN=C(c2ccccc2)c2cc([N+](=O)[O-])ccc2N1 [Nitrazepam, nitrazepam]
blood plasma ratio at 1 h, 5 µM [1]: 0.63 ± 0.02 | blood-to-plasma ratio ([2]; calculated from literature whole blood and plasma concentrations (125-I radioimmunoassay)): 0.57 ± 0.27 | blood-to-plasma ratio ([2]; commonly reported value, origin unclear): 1.0 | Kb/p literature (blood-to-plasma ratio) [2]: 0.57–1.00

CCc1cc2c(s1)-n1c(C)nnc1CN=C2c1ccccc1 [Deschloroetizolam, deschloroetizolam]
Kb/p experimental (blood-to-plasma ratio) [1]: 0.68 ± 0.06 | plasma protein binding [3]: 87.2%

Cc1nnc2n1-c1ccc([N+](=O)[O-])cc1C(c1ccccc1F)=NC2 [flunitrazolam]
predicted log 1/c value [4]: 8.88

O=C1CN=C(c2ccccc2Cl)c2cc(Br)ccc2N1 [Phenazepam, phenazepam]
blood plasma ratio at 1 h, 5 µM [1]: 0.57 ± 0.13 | plasma protein binding [3]: 98.3%

C[C@@H]1N=C(c2ccccc2Cl)c2cc([N+](=O)[O-])ccc2NC1=O [Meclonazepam, meclonazepam]
blood plasma ratio at 1 h, 5 µM [1]: 0.83 ± 0.08

O=C1Nc2ccc(Cl)cc2C(c2ccccc2Cl)=NC1O (stereo not drawn) [lorazepam]
blood-to-plasma ratio ([2]; ref 16): 0.60 | blood-to-plasma ratio ([2]; ref 38): 1.14

O=C1CN=C(c2ccccc2Cl)c2cc([N+](=O)[O-])ccc2N1 [Clonazepam, clonazepam]
blood-to-plasma ratio ([2]; ref 37): 0.65

CN1C(=O)CN=C(c2ccccc2Cl)c2cc(Cl)ccc21 [Diclazepam, diclazepam]
Kb/p experimental (blood-to-plasma ratio) [1]: 0.82 ± 0.05 | plasma protein binding [3]: 93.8%

C=C[C@H]1C[N@@]2CC[C@H]1C[C@H]2[C@H](O)c1ccnc2ccc(OC)cc12 [Quinine, quinine]
blood plasma ratio at 1 h, 5 µM [1]: 1.66 ± 0.52 | Kb/p literature (blood-to-plasma ratio) [2]: 1.46–2.00

CN(C)CCCN1c2ccccc2Sc2ccc(Cl)cc21 [Chlorpromazine, chlorpromazine]
blood plasma ratio at 1 h, 5 µM [1]: 1.43 ± 0.32 | Kb/p literature (blood-to-plasma ratio) [2]: 1.17–1.56

Cc1nnc2n1-c1ccc(Br)cc1C(c1ccccn1)=NC2 [Pyrazolam, pyrazolam]
Kb/p experimental (blood-to-plasma ratio) [1]: 1.18 ± 0.03 | plasma protein binding [3]: 78.7%

CCc1cc2c(s1)-n1c(C)nnc1CN=C2c1ccccc1Cl [Etizolam, etizolam]
blood plasma ratio at 1 h, 5 µM [1]: 0.7 ± 0.03 | plasma protein binding [3]: 92.8%

Cc1nnc2n1-c1sc(Cl)cc1C(c1ccccc1F)=NC2 [Fluclotizolam]
dose reported as having a 'heavy effect' [5]: more than 0.75 mg
